Reference: ChEMBL document CHEMBL5390204, “Persephacin Is a Broad-Spectrum Antifungal Aureobasidin Metabolite That Overcomes Intrinsic Resistance in Aspergillus fumigatus” (J Nat Prod, 2023)
In brackets after ≈: the same amount, converted by molar mass.

Key:
Aspergillus fumigatus [1] = assay: Antifungal activity against Aspergillus fumigatus NRRL5109 assessed as reduction in fungal viability incubated for 48 hrs by microplate reader analysis; assay type: functional
Aspergillus fumigatus [2] = assay: Antifungal activity against Aspergillus fumigatus MYA 3627 assessed as reduction in fungal viability incubated for 48 hrs by microplate reader analysis; assay type: functional
[Candida] auris [3] = Antifungal activity against multidrug-resistant Candida auris 381 assessed as inhibition in fungal growth incubated for 48 hrs in presence of 10% serum by microplate reader analysis; assay type: functional; details: Candidozyma auris
Pichia kudriavzevii [4] = assay: Antifungal activity against Candida krusei ATCC 6258 (Y-7179) assessed as reduction in fungal viability incubated for 48 hrs by microplate reader analysis; assay type: functional
Aspergillus fumigatus [5] = assay: Antifungal activity against Aspergillus fumigatus NRRL6113 assessed as reduction in fungal growth incubated for 48 hrs by microplate reader analysis; assay type: functional
Candida albicans [6] = assay: Antifungal activity against Candida albicans ATCC 10231 assessed as reduction in fungal viability incubated for 48 hrs by microplate reader analysis; assay type: functional
Candida albicans [7] = assay: Antifungal activity against Candida albicans SC5314 assessed as reduction in fungal viability incubated for 48 hrs by microplate reader analysis; assay type: functional
Candida parapsilosis [8] = assay: Antifungal activity against Candida parapsilosis 9 assessed as inhibition in fungal growth incubated for 48 hrs by microplate reader analysis; assay type: functional; details: Lodderomyces parapsilosis
Candida duobushaemulonii [9] = assay: Antifungal activity against multidrug-resistant Candida duobushaemulonii 391 assessed as inhibition in fungal growth incubated for 48 hrs by microplate reader analysis; assay type: functional; details: Candidozyma duobushaemuli
Candida albicans [10] = assay: Antifungal activity against Candida albicans 24 assessed as inhibition in fungal growth incubated for 48 hrs by microplate reader analysis; assay type: functional
Kluyveromyces marxianus = assay: Antifungal activity against Candida kefyr 12 assessed as inhibition in fungal growth incubated for 48 hrs by microplate reader analysis; assay type: functional
Aspergillus fumigatus [11] = assay: Antifungal activity against Aspergillus fumigatus ATCC MYA-3627 assessed as inhibition in fungal growth incubated for 48 hrs in presence of 10% serum by microplate reader analysis; assay type: functional
[Candida] auris [12] = Antifungal activity against multidrug-resistant Candida auris 382 assessed as inhibition in fungal growth incubated for 48 hrs by microplate reader analysis; assay type: functional; details: Candidozyma auris
Nakaseomyces glabratus [13] = assay: Antifungal activity against Candida glabrata 16 assessed as inhibition in fungal growth incubated for 48 hrs by microplate reader analysis; assay type: functional
[Candida] auris [14] = Antifungal activity against multidrug-resistant Candida auris 388 assessed as inhibition in fungal growth incubated for 48 hrs by microplate reader analysis; assay type: functional; details: Candidozyma auris
Aspergillus fumigatus [15] = assay: Antifungal activity against Aspergillus fumigatus NRRL5109 assessed as reduction in fungal growth incubated for 48 hrs by microplate reader analysis; assay type: functional
Candida parapsilosis [16] = assay: Antifungal activity against Candida parapsilosis ATCC 22019 (Y-12969) assessed as reduction in fungal viability incubated for 48 hrs by microplate reader analysis; assay type: functional
Pichia kudriavzevii [17] = assay: Antifungal activity against multidrug-resistant Candida krusei 397 assessed as inhibition in fungal growth incubated for 48 hrs by microplate reader analysis; assay type: functional
Cryptococcus neoformans [18] = assay: Antifungal activity against Cryptococcus neoformans H99 assessed as reduction in fungal viability incubated for 48 hrs by microplate reader analysis; assay type: functional
Candida albicans [19] = assay: Antifungal activity against Candida albicans 3 assessed as inhibition in fungal growth incubated for 48 hrs by microplate reader analysis; assay type: functional
Aspergillus flavus [20] = assay: Antifungal activity against Aspergillus flavus NRRL485 assessed as reduction in fungal growth incubated for 48 hrs by microplate reader analysis; assay type: functional
Saccharomyces cerevisiae = assay: Antifungal activity against multidrug-resistant Saccharomyces cerevisiae 399 assessed as inhibition in fungal growth incubated for 48 hrs by microplate reader analysis; assay type: functional
Cryptococcus neoformans [21] = assay: Antifungal activity against Cryptococcus neoformans H99 assessed as inhibition in fungal growth incubated for 48 hrs in presence of 0% serum by microplate reader analysis; assay type: functional
[Candida] auris [22] = Antifungal activity against multidrug-resistant Candida auris 381 assessed as inhibition in fungal growth incubated for 48 hrs by microplate reader analysis; assay type: functional; details: Candidozyma auris
[Candida] auris [23] = Antifungal activity against multidrug-resistant Candida auris 386 assessed as inhibition in fungal growth incubated for 48 hrs by microplate reader analysis; assay type: functional; details: Candidozyma auris
Aspergillus fumigatus [24] = assay: Antifungal activity against Aspergillus fumigatus ATCC MYA-3627 assessed as inhibition in fungal growth incubated for 48 hrs in presence of 5% serum by microplate reader analysis; assay type: functional
[Candida] haemuloni = Antifungal activity against multidrug-resistant Candida haemulonii 393 assessed as inhibition in fungal growth incubated for 48 hrs by microplate reader analysis; assay type: functional; details: Candidozyma haemuli
Hamigera insecticola [25] = assay: Antifungal activity against Hamigera insecticola NRRL35442 assessed as reduction in fungal growth incubated for 48 hrs by microplate reader analysis; assay type: functional
[Candida] auris [26] = Antifungal activity against multidrug-resistant Candida auris 390 assessed as inhibition in fungal growth incubated for 48 hrs by microplate reader analysis; assay type: functional; details: Candidozyma auris
Cryptococcus neoformans [27] = assay: Antifungal activity against Cryptococcus neoformans H99 assessed as inhibition in fungal growth incubated for 48 hrs in presence of 10% serum by microplate reader analysis; assay type: functional
Cryptococcus neoformans [28] = assay: Antifungal activity against Cryptococcus neoformans H99 assessed as reduction in fungal growth incubated for 48 hrs by microplate reader analysis; assay type: functional
Candida tropicalis = assay: Antifungal activity against Candida tropicalis ATCC750 (Y-12699) assessed as reduction in fungal viability incubated for 48 hrs by microplate reader analysis; assay type: functional
Candida duobushaemulonii [29] = assay: Antifungal activity against multidrug-resistant Candida duobushaemulonii 394 assessed as inhibition in fungal growth incubated for 48 hrs by microplate reader analysis; assay type: functional; details: Candidozyma duobushaemuli
Candida parapsilosis [30] = assay: Antifungal activity against Candida parapsilosis 28 assessed as inhibition in fungal growth incubated for 48 hrs by microplate reader analysis; assay type: functional; details: Lodderomyces parapsilosis
Nakaseomyces glabratus [31] = assay: Antifungal activity against Candida glabrata 22 assessed as inhibition in fungal growth incubated for 48 hrs by microplate reader analysis; assay type: functional
Candida albicans [32] = assay: Antifungal activity against Candida albicans ATCC 10231 assessed as reduction in fungal growth incubated for 48 hrs by microplate reader analysis; assay type: functional
[Candida] auris [33] = Antifungal activity against multidrug-resistant Candida auris 389 assessed as inhibition in fungal growth incubated for 48 hrs by microplate reader analysis; assay type: functional; details: Candidozyma auris
Candida parapsilosis [34] = assay: Antifungal activity against Candida parapsilosis ATCC 22019 (Y-12969) assessed as reduction in fungal growth incubated for 48 hrs by microplate reader analysis; assay type: functional; details: Lodderomyces parapsilosis
Candida albicans [35] = assay: Antifungal activity against Candida albicans 30 assessed as inhibition in fungal growth incubated for 48 hrs by microplate reader analysis; assay type: functional
Paecilomyces lilacinus = assay: Antifungal activity against Paecilomyces lilacinus 165E10 assessed as reduction in fungal viability incubated for 48 hrs by microplate reader analysis; assay type: functional, Purpureocillium lilacinum
Nakaseomyces glabratus [36] = assay: Antifungal activity against Candida glabrata 20 assessed as inhibition in fungal growth incubated for 48 hrs by microplate reader analysis; assay type: functional
Hamigera insecticola [37] = assay: Antifungal activity against Hamigera insecticola NRRL35442 assessed as reduction in fungal viability incubated for 48 hrs by microplate reader analysis; assay type: functional
Aspergillus flavus [38] = assay: Antifungal activity against Aspergillus flavus NRRL485 assessed as reduction in fungal viability incubated for 48 hrs by microplate reader analysis; assay type: functional
Aspergillus fumigatus [39] = assay: Antifungal activity against Aspergillus fumigatus NRRL6113 assessed as reduction in fungal viability incubated for 48 hrs by microplate reader analysis; assay type: functional

## CC[C@H](C)C[C@H](C)C[C@H](C)C[C@@H]1NC(=O)[C@H](C(C)C)N(C)C(=O)[C@@H]([C@H](C)CC)OC(=O)[C@H](C(C)(C)O)N(C)C(=O)[C@H](CC(C)C)NC(=O)[C@H](C(C)C)N(C)C(=O)[C@H]([C@H](C)CC)NC(=O)[C@@H]2CCCN2C(=O)CN(C)C1=O
Aspergillus fumigatus [1]
  MFC<=99.9: 5 µM (≈ 5.38 µg/mL)
Aspergillus fumigatus [2]
  MFC<=99.9: 5 µM (≈ 5.38 µg/mL)
[Candida] auris [3]
  MIC80: 1.3 µM
Pichia kudriavzevii [4]
  MFC<=99.9: 2.5 µM (≈ 2.69 µg/mL)
Aspergillus fumigatus [5]
  MFC: 5 µM (≈ 5.38 µg/mL)
  MIC80: 2.5 µM (≈ 2.69 µg/mL)
Candida albicans [6]
  MFC<=99.9: 1.3 µM (≈ 1.4 µg/mL)
Candida albicans [7]
  MFC<=99.9: 1.3 µM (≈ 1.4 µg/mL)
Candida parapsilosis [8]
  MIC80: 2.5 µM (≈ 2.69 µg/mL)
Candida duobushaemulonii [9]
  MIC80: 2.5 µM (≈ 2.69 µg/mL)
Candida albicans [10]
  MIC80: 0.6 µM (≈ 0.645 µg/mL)
Kluyveromyces marxianus
  MIC80: 1.3 µM (≈ 1.4 µg/mL)
Aspergillus fumigatus [11]
  MIC80: 2.5 µM
[Candida] auris [12]
  MIC80: 2.5 µM (≈ 2.69 µg/mL)
Nakaseomyces glabratus [13]
  MIC80: 0.3 µM (≈ 0.323 µg/mL)
[Candida] auris [14]
  MIC80: 2.5 µM (≈ 2.69 µg/mL)
Aspergillus fumigatus [15]
  MFC: 5 µM (≈ 5.38 µg/mL)
  MIC80: 2.5 µM (≈ 2.69 µg/mL)
Candida parapsilosis [16]
  MFC<=99.9: 2.5 µM (≈ 2.69 µg/mL)
Pichia kudriavzevii [17]
  MIC80: 2.5 µM (≈ 2.69 µg/mL)
Cryptococcus neoformans [18]
  MFC<=99.9: 2.5 µM (≈ 2.69 µg/mL)
Candida albicans [19]
  MIC80: 2.5 µM (≈ 2.69 µg/mL)
Aspergillus flavus [20]
  MFC: > 10 µM
  MIC80: 1.3 µM (≈ 1.4 µg/mL)
Saccharomyces cerevisiae
  MIC80: 2.5 µM (≈ 2.69 µg/mL)
Cryptococcus neoformans [21]
  MIC80: 0.6 µM
[Candida] auris [22]
  MIC80: 2.5 µM (≈ 2.69 µg/mL)
[Candida] auris [23]
  MIC80: 2.5 µM (≈ 2.69 µg/mL)
Aspergillus fumigatus [24]
  MIC80: 2.5 µM
[Candida] haemuloni
  MIC80: 0.3 µM (≈ 0.323 µg/mL)
Hamigera insecticola [25]
  MFC: 5 µM (≈ 5.38 µg/mL)
  MIC80: 0.6 µM (≈ 0.645 µg/mL)
[Candida] auris [26]
  MIC80: 2.5 µM (≈ 2.69 µg/mL)
Cryptococcus neoformans [27]
  MIC80: < 0.2 µM
Cryptococcus neoformans [28]
  MFC: 2.5 µM (≈ 2.69 µg/mL)
  MIC80: 0.6 µM (≈ 0.645 µg/mL)
Candida tropicalis
  MFC<=99.9: 2.5 µM (≈ 2.69 µg/mL)
Candida duobushaemulonii [29]
  MIC80: 2.5 µM (≈ 2.69 µg/mL)
Candida parapsilosis [30]
  MIC80: 2.5 µM (≈ 2.69 µg/mL)
Nakaseomyces glabratus [31]
  MIC80: 0.6 µM (≈ 0.645 µg/mL)
Candida albicans [32]
  MFC: 1.3 µM (≈ 1.4 µg/mL)
  MIC80: 0.6 µM (≈ 0.645 µg/mL)
[Candida] auris [33]
  MIC80: 2.5 µM (≈ 2.69 µg/mL)
Candida parapsilosis [34]
  MFC: 2.5 µM (≈ 2.69 µg/mL)
  MIC80: 2.5 µM (≈ 2.69 µg/mL)
Candida albicans [35]
  MIC80: 5 µM (≈ 5.38 µg/mL)
Paecilomyces lilacinus
  MFC<=99.9: >10 µM
Nakaseomyces glabratus [36]
  MIC80: 0.3 µM (≈ 0.323 µg/mL)
Hamigera insecticola [37]
  MFC<=99.9: 5 µM (≈ 5.38 µg/mL)
Aspergillus flavus [38]
  MFC<=99.9: >10 µM
Aspergillus fumigatus [39]
  MFC<=99.9: 5 µM (≈ 5.38 µg/mL)
